Patent US20160317661A1, “DERMAL AND/OR TRANSDERMAL PHARMACEUTICAL COMPOSITION CONTAINING A TERPENOID COMPOUND” (EPINAMICS GMBH, priority 2013, published 2016)
In brackets after ≈: the same amount, converted by molar mass. Counter-ions that a name gives are not always drawn.

Legend:
[1] = Solubilities of active ingredients in carvacrol or carvacrol-containing (or thymol) formulations; type: physicochemical
Text: The mixing ratios are always given as volume proportions. Liqui-Patch® are formulations of ready-to-use mixtures of polymers and other additives for making transdermal systems and are obtainable from the company epinamics GmbH. In the formulation employed here, Liqui-Patch® contains the following components: mixture of 10 g triethyl citrate, 100 g water (demineralized or medical), 100 g DynamX®, 790 g ethanol.

[2] = Solubilities of clotrimazole and testosterone in different solvents; details: for Solubilities in solvents with compounds employed according to the invention, compared with other solvents: Table II; for solubility: organic solvent or mixture
[3] = Volatility of carvacrol with different admixtures (spots on glass plate at 35° C., recovery); type: physicochemical; details: for V.C. 30 min. (volatile carvacrol) / V.C. 3 h (volatile carvacrol): carvacrol 20%, remainder ethanol, 35° C.
Experimental: For testing whether carvacrol is suitable for transdermal systems or whether carvacrol is contained sufficiently long in transdermal systems, the volatility was investigated with different admixtures. The volatility is important, in order to keep the active ingredients sufficiently long in solution in the film.
For the measurement, two spots of 5 μl of each formulation, containing 1 mg carvacrol, were applied per point of time on a glass plate kept at 35° C. Two spots of a respective point of time (30 min. and 3 h after application of the spot) were wiped off with a cotton applicator. The amount of wiped-off carvacrol was determined. The difference to 100% intended recovery rate is the volatile carvacrol. The abbreviation V. refers to “volatile”, the abbreviation C. refers to carvacrol. The share of carvacrol is always 20%, the remainder relative to the sum of carvacrol and the additive is ethanol. Amounts are given in vol.-%.

[4] = solvent: Carvacrol/Liqui-Patch (1:1), volume proportions
[5] = additive Ethylmethyl ketone 10%
[6] = additive Ethylmethyl ketone 20%
[7] = additive Isopropyl myristate 10%
[8] = additive Isopropyl myristate 20%
[9] = additive Propylene carbonate 10%
[10] = additive Propylene carbonate 20%
[11] = additive Propylene glycol 10%/menthol 5%
[12] = additive Propylene glycol 20%/menthol 10%

For COc1cc(/C=C/C(=O)CC(=O)/C=C/c2ccc(O)c(OC)c2)ccc1O [Curcumin], the Dissolved amount ([1]; solvent: Carvacrol) was 20 mg/mL.

With O=c1[nH]c(=O)c2[nH]c(=O)[nH]c2[nH]1 [Uric acid] the Dissolved amount ([1]; solvent: Carvacrol) was less than 20 mg/mL.

For CC1=CC(=O)C(C(C)C)=CC1=O [Thymoquinone], the Dissolved amount ([1]; solvent: Carvacrol) was greater than 100 mg/mL.

CCCCCCCCCCCC(=O)O [Lauric acid] gave a Dissolved amount ([1]; solvent: Carvacrol) of 500 mg/mL and a Dissolved amount [1, 4] of 250 mg/mL.

In the case of CC[C@H]1OC(=O)[C@H](C)[C@@H](O[C@H]2C[C@@](C)(OC)[C@@H](O)[C@H](C)O2)[C@H](C)[C@@H](O[C@@H]2O[C@H](C)C[C@H](N(C)C)[C@H]2O)[C@](C)(O)C[C@@H](C)C(=O)[C@H](C)[C@@H](O)[C@]1(C)O [Erythromycin], the Dissolved amount ([1]; solvent: Carvacrol) is reported as 110 mg/mL.

CN(C/C=C/C#CC(C)(C)C)Cc1cccc2ccccc12 [Terbinafine] showed a Dissolved amount ([1]; solvent: Thymol/Ethanol (1:1)) of 406 mg/mL.

With CC(=O)N1CCN(c2ccc(OCC3COC(Cn4ccnc4)(c4ccc(Cl)cc4Cl)O3)cc2)CC1 (stereo not drawn) [Ketoconazole] the Dissolved amount ([1]; solvent: Carvacrol) was 140 mg/mL.

In the case of O=c1ccc2ccccc2o1 [Coumarin], the Dissolved amount ([1]; solvent: Carvacrol) is reported as greater than 200 mg/mL.

Compound O=C(CCCN1CCC(O)(c2ccc(Cl)cc2)CC1)c1ccc(F)cc1 [Haloperidol] has a Dissolved amount ([1]; solvent: Carvacrol) of 100 mg/mL.

With O=C(O)c1ccccc1O [Salicylic acid] the Dissolved amount ([1]; solvent: Carvacrol/Methanol (1:1), volume proportions) was 240 mg/mL.

For O=C(O)c1cc(=O)c2c(OCC(O)COc3cccc4oc(C(=O)O)cc(=O)c34)cccc2o1 [Cromoglicic acid-Na, Cromoglicic acid disodium salt], the Dissolved amount ([1]; solvent: Carvacrol) was 50 mg/mL.

Work on Oc1cccc2cccnc12 [8-Hydroxyquinoline] yielded a Dissolved amount ([1]; solvent: Carvacrol) greater than 100 mg/mL.

With Clc1ccccc1C(c1ccccc1)(c1ccccc1)n1ccnc1 [Clotrimazole] the “Solubilities in solvents with compounds employed according to the invention, compared with other solvents” value [2] was “considerably higher” and the Dissolved amount ([1]; solvent: Carvacrol) was 410 mg/mL.

O=c1oc2c(O)c(O)cc3c(=O)oc4c(O)c(O)cc1c4c23 [Ellagic acid] showed a Dissolved amount ([1]; solvent: Carvacrol) of 60 mg/mL.

Compound Cl.Cl.Fc1ccc(C(c2ccc(F)cc2)N2CCN(C/C=C/c3ccccc3)CC2)cc1 [Flunarizine*2HCl] has a Dissolved amount ([1]; solvent: Carvacrol) of 60 mg/mL.

O=c1[nH]cc(F)c(=O)[nH]1 [5-Fluorouracil] showed a Dissolved amount ([1]; solvent: Carvacrol) of 25 mg/mL.

Work on CN1C2CCCC1CC(NC(=O)c1nn(C)c3ccccc13)C2 (stereo not drawn) [Granisetron] yielded a Dissolved amount ([1]; solvent: Carvacrol 62.5% Methanol 31.25% 2M NaOH/H2O 6.25%) of 71.25 mg/mL.

CCn1cc(C(=O)O)c(=O)c2ccc(C)nc21 [Nalidixic Acid] showed a Dissolved amount ([1]; solvent: Carvacrol) of 108 mg/mL.

In the case of C[C@]12CC[C@H]3[C@@H](CCC4=CC(=O)CC[C@@]43C)[C@@H]1CC[C@@H]2O [Testosterone], the “Solubilities in solvents with compounds employed according to the invention, compared with other solvents” value [2] is reported as “considerably higher”, the solubility ([2]; solvent: 4-Methyl-Anisole) is reported as less than 250 mg/mL and the solubility ([2]; solvent: 20% 4MS/80% EtOH) is reported as 335 mg/mL (≈ 1160 mM). For the same compound, the solubility ([2]; solvent: 20% (S)-(—)-Limonene/80% Ethanol) was 200 mg/mL (≈ 693 mM), the solubility ([2]; solvent: 20% Anisole/80% EtOH) was 500 mg/mL (≈ 1730 mM) and the solubility ([2]; solvent: 20% Carvacrol/80% Acetone) was 170 mg/mL (≈ 589 mM). For the same compound, the solubility ([2]; solvent: 20% Carvacrol/80% EtOH) was 260 mg/mL (≈ 901 mM), the solubility ([2]; solvent: 20% Carvacrol/80% LP (Liqui-Patch)) was 250 mg/mL (≈ 867 mM) and the solubility ([2]; solvent: 20% Gamma-Terpinene/80% ethalol) was 200 mg/mL (≈ 693 mM). It also gave a solubility ([2]; solvent: 20% Guaiacol/80% EtOH) of 300 mg/mL (≈ 1040 mM), a solubility ([2]; solvent: 20% Guaiacol/80% LP (Liqui-Patch)) of 270 mg/mL (≈ 936 mM) and a solubility ([2]; solvent: 20% Thymol/80% Acetone) of 180 mg/mL (≈ 624 mM). For the same compound, the solubility ([2]; solvent: 20% Thymol/80% EtOH) was 330 mg/mL (≈ 1140 mM), the solubility ([2]; solvent: 20% Thymol/80% LP (Liqui-Patch)) was 300 mg/mL (≈ 1040 mM) and the solubility ([2]; solvent: 20% p-Cymene/80% Ethanol) was 300 mg/mL (≈ 1040 mM). For the same compound, the solubility ([2]; solvent: (S)-(—)-Limonene) was less than 100 mg/mL, the solubility ([2]; solvent: Acetone) was 60 mg/mL (≈ 208 mM) and the solubility ([2]; solvent: Anisole) was less than 100 mg/mL. The solubility ([2]; solvent: Ethanol) was 90 mg/mL (≈ 312 mM), the solubility ([2]; solvent: Gamma-Terpinene) was less than 100 mg/mL and the solubility ([2]; solvent: Guaiacol) was 270 mg/mL (≈ 936 mM). For the same compound, the solubility ([2]; solvent: LP (Liqui-Patch)) was 190 mg/mL (≈ 659 mM), the solubility ([2]; solvent: Methyl salicylate (4MS)) was less than 100 mg/mL and the solubility ([2]; solvent: carvacrol) was 230 mg/mL (≈ 797 mM). It also gave a solubility ([2]; solvent: p-Cymene) of less than 100 mg/mL and a Dissolved amount ([1]; solvent: Carvacrol) of 220 mg/mL.

With Cc1ccc(C(C)C)cc1O [carvacrol] the “V.C. 30 min. (volatile carvacrol)” value [3, 5] was 33%, the “V.C. 3 h (volatile carvacrol)” value [3, 5] was 100% and the “V.C. 30 min. (volatile carvacrol)” value [3, 6] was 45%. The “V.C. 3 h (volatile carvacrol)” value [3, 6] was 100%, the “V.C. 30 min. (volatile carvacrol)” value ([3]; additive Glycerol 10%) was 28% and the “V.C. 3 h (volatile carvacrol)” value ([3]; additive Glycerol 10%) was 96%. The “V.C. 30 min. (volatile carvacrol)” value ([3]; additive Glycerol 20%) was 33%, the “V.C. 3 h (volatile carvacrol)” value ([3]; additive Glycerol 20%) was 88% and the “V.C. 30 min. (volatile carvacrol)” value [3, 7] was 26%. For the same compound, the “V.C. 3 h (volatile carvacrol)” value [3, 7] was 46%, the “V.C. 30 min. (volatile carvacrol)” value [3, 8] was 24% and the “V.C. 3 h (volatile carvacrol)” value [3, 8] was 32%. For the same compound, the “V.C. 30 min. (volatile carvacrol)” value [3, 9] was 29%, the “V.C. 3 h (volatile carvacrol)” value [3, 9] was 49% and the “V.C. 30 min. (volatile carvacrol)” value [3, 10] was 11%. The “V.C. 3 h (volatile carvacrol)” value [3, 10] was 24%, the “V.C. 30 min. (volatile carvacrol)” value [3, 11] was 40% and the “V.C. 3 h (volatile carvacrol)” value [3, 11] was 97%. For the same compound, the “V.C. 30 min. (volatile carvacrol)” value ([3]; additive Propylene glycol 10%) was 40%, the “V.C. 3 h (volatile carvacrol)” value ([3]; additive Propylene glycol 10%) was 51% and the “V.C. 30 min. (volatile carvacrol)” value [3, 12] was 0%. For the same compound, the “V.C. 3 h (volatile carvacrol)” value [3, 12] was 46%, the “V.C. 30 min. (volatile carvacrol)” value ([3]; additive Propylene glycol 20%) was 1% and the “V.C. 3 h (volatile carvacrol)” value ([3]; additive Propylene glycol 20%) was 33%. For the same compound, the “V.C. 30 min. (volatile carvacrol)” value ([3]; additive Water 10%) was 18%, the “V.C. 3 h (volatile carvacrol)” value ([3]; additive Water 10%) was 94% and the “V.C. 30 min. (volatile carvacrol)” value ([3]; additive Water 20%) was 0%. The “V.C. 3 h (volatile carvacrol)” value ([3]; additive Water 20%) was 94% and the Volatility of carvacrol ([3]; by propylene carbonate, propylene glycol, or isopropyl myristate as additive) was “reduced”.

Nc1cc(=O)[nH]c(=O)[nH]1 [6-Aminouracil] gave a Dissolved amount ([1]; solvent: Carvacrol) of less than 50 mg/mL.

In the case of C=C(c1ccc(C(=O)O)cc1)c1cc2c(cc1C)C(C)(C)CCC2(C)C [Bexarotene], the Dissolved amount ([1]; solvent: Carvacrol) is reported as 60 mg/mL and the Dissolved amount [1, 4] is reported as 30 mg/mL.
